Test results published in the METLIN SMRT retention time set (Domingo-Almenara et al. 2019).

test: gradient 5% acetonitrile 3 min, to 50% in 2 min, to 85% in 15 min, held 3 min, 100 µL/min; settings: column: Zorbax Extend-C18 2.1 x 50 mm; eluents: water / acetonitrile, 0.1% formic acid
Summary of the method: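 Using water and acetonitrile that each contained 0.1% formic acid, mixtures of ~100 pure standards were separated at 100 μL/min on a Zorbax Extend-C18 column (2.1 × 50 mm, 1.8 μm). The HPLC fed a quadrupole time-of-flight mass spectrometer working in positive and negative ionization mode, with dead and dwell volumes of 40 μL and 900 μL. Data were acquired over 3 months. Retention time was read from computationally picked adduct peaks after manual inspection of each.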

SMILES	RP-LC retention time [s]
O=C(Cc1csc(NC(=O)c2ccccc2)n1)Nc1ccc(F)c(Cl)c1	869
O=C(Nc1ncc(Cc2ccc(Cl)cc2)s1)c1ccco1	869
CCc1noc(-c2nc(-c3ccc(OC)cc3OC)no2)n1	976
CCCC(=O)N1CCCn2nc(-c3ccncc3)cc2C1	577
CCOc1ccc(C(=O)N2CCCN(c3cc(-c4ccc(Br)cc4)[nH]n3)CC2)cc1OCC	853
Cc1ccc(C)c(S(=O)(=O)N2CC(N(C(=O)NC(C)C)C3CCOCC3)C2)c1	689
COc1ccc2nc(C(=O)NCc3cccc(Br)c3)cn2n1	896
CN(Cc1ccccc1)C(=O)c1ccc2c(c1)CCCN2S(C)(=O)=O	841
O=C(NCc1ccccc1Cl)C(=O)c1c[nH]c2ccccc12	936
COC(=O)[C@@H](N)CSC/C=C(\C)CC/C=C(\C)CCC=C(C)C	961
Cc1ccc(Nc2c(-c3cccc(Br)c3)nc3c(C)cccn23)cc1	843
Cc1cc(NC(=O)c2ccccc2Br)nc2c1c(=O)oc1ccccc12	1010
CC(=O)N1CCCc2cc(S(=O)(=O)CCC(=O)Nc3cc(C)ccc3C)ccc21	758
CC1=CC(C)(C)N=C2SC(c3ccc(N)cc3)=NN12	635
CN(C)c1ccc(-c2nc3ncc(Cl)c(N4CCN(CC(=O)Nc5nccs5)CC4)c3[nH]2)cc1	704
O=C(O)c1ccc(N2CCCC(CN3CCCC3)C2)c(NS(=O)(=O)c2ccccc2)c1 (stereo not given)	643
COc1ccc(-c2cc(N3CCN(C(=O)NCCC(C)C)CC3)ncn2)cc1OC	658
CC(NC(=O)C1CCCN(c2nc3ccsc3c(=O)n2Cc2ccccc2)C1)c1ccc(F)cc1 (stereo not given)	951
Cc1ccccc1NC(=O)N1CCC2(C1)C(=O)Nc1ccccc12 (stereo not given)	727
O=C(NCCc1csc(C2CCN(C(=O)c3cc(F)ccc3F)CC2)n1)C1CC1	699
Cc1cccc(N2CCN(C(=O)c3cc(C)n4nccc4n3)CC2)c1	829
COc1ccc(-n2c(=O)n(C)c(=O)c3cc(C(=O)Nc4cccc(Cl)c4)cnc32)cc1	1010
COC(=O)c1nc(NC(=O)Cn2nc3c(cc2=O)CCCCC3)sc1C(C)C	864

SMILES	RP-LC retention time [s]
Cc1cc(N2CCCCC2)nc(N2CCN(S(=O)(=O)c3ccc(Br)cc3)CC2)n1	847
CC1Oc2ccccc2N(Cc2nc(-c3cccc(Br)c3)no2)C1=O (stereo not given)	1200
CN1CC[C@@]23CCCC[C@@H]2[C@@H]1Cc1ccc(O)cc13	644
Cc1cccc(S(=O)(=O)Nc2ccc3c(c2)CCC(=O)N3)c1	689
CSc1cccc(NC(=O)Cn2c(=O)cc(-c3nc(C(C)C)no3)c3ccccc32)c1	928
COc1ccc(NC(=O)Cn2nc3cc(C)nc(Nc4ccc(C)c(C)c4)n3c2=O)cc1	1090
CC(C)Cn1c(=O)c(C(=O)NC2CCN(Cc3ccccc3)CC2)nc2cccnc21	670
Cc1ccc(CC(=O)Nc2cc(-c3cccs3)no2)cc1	993
CCN1CCN(C2CCN(C(=O)c3cc(F)ccc3Cl)CC2)C1=O	705
C[C@H]1CN(C(=O)Nc2ccccc2Cl)C[C@@H]1c1nc(-c2ccncc2)no1	854
O=C(Nc1ccc2c(c1)OCCO2)C1CCN(C(=O)c2ccc(-c3noc(C4CC4)n3)cc2)CC1	828
CCCN1C(=O)COc2ccc(-c3noc(CNC(=O)c4ccccc4)n3)cc21	870
CC(C)CCNC(=O)C1(C)CN(S(=O)(=O)c2ccccc2)CC(=O)N1CCCN1CCCCC1 (stereo not given)	674
CCN1C(=O)c2cc(C(=O)N3CCN(c4ncccn4)CC3)nn2CC1(C)C(=O)NC1CCCC1 (stereo not given)	691
Cc1ccc(C(=O)N2CCC3(CC2)N=C(c2ccc(Br)cc2)NO3)cc1	875
Cc1ccn2cc(C(=O)N3CCN(c4ccccc4C)CC3)nc2c1	901
Cc1cc(=O)n(CC(=O)Nc2cc(F)ccc2F)c(N2CCc3ccccc3C2)n1	849
COc1ccc2c(c1)[C@H]1OCCC[C@H]1C(c1cccc(O)c1)N2 (stereo not given in full)	793
Cc1ccccc1-c1nnc(COc2ccc(NC(=O)c3cncc(Br)c3)cc2)o1	968
CCNc1cc(N2CCCC(CCC(=O)Nc3ccc4c(c3)OCCO4)C2)ncn1 (stereo not given)	674
O=C(CSc1ccc(Cl)cc1)Nc1nnc(-c2cccc([N+](=O)[O-])c2)s1	968
COc1ccc(-c2noc(CCCC(=O)Nc3nc(-c4ccccc4)cs3)n2)cc1	1060
Cc1ccc2cc(CCC(=O)NCCN3CCOCC3)c(=O)[nH]c2c1	594

SMILES	RP-LC retention time [s]
O=S(=O)(Nc1cccc(-c2cn3ccccc3n2)c1)c1ccccc1	626
COc1ccc(C(=O)N2C[C@@H](Oc3cccnc3)C[C@H]2C(=O)NC2CC2)c(OC)n1	602
COc1ccc(NC(=O)C2CCN(c3nnc4ccccn34)CC2)cc1Cl	666
Cc1ccccc1NS(=O)(=O)c1cn(C(C)C)c2ncccc12	896
CC(C)CC(=O)NCC12CCC=C1N(C)C(=O)CC2 (stereo not given)	691
CCC(C(=O)Nc1ccc(-c2nc(Cn3nc(C)cc3C)c(C)o2)cc1)c1ccccc1 (stereo not given)	1050
Cc1ccc(CNC(=O)N2CCN(c3ncccc3-c3nnc(C(C)C)o3)CC2)cc1	815
O=C(NCCCn1ccnc1)C(=O)Nc1c2c(nn1-c1cccc(Cl)c1)CSC2	568
O=C(CN1CCN(Cc2ccc(F)cc2)C1=O)NCc1ccc(N2CCCC2)cc1	761
COc1ccc(NC(=O)N2CCC(N3C[C@H]4C[C@H](C3)[C@H]3CCCC(=O)N3C4)CC2)cc1OC	611
CC1=NS(=O)(=O)N(Cc2ccccc2)C=C1C(=O)OCc1ccc(C(F)(F)F)cc1	1190
O=C(Cn1nc2c(Oc3cccc(F)c3)nccn2c1=O)Nc1ccccc1C(F)(F)F	870
CCOC(=O)CCC(=O)Nc1cccc2ccc(OC)nc12	904
Cc1oc2ccn(Cc3ccc(F)cc3)c(=O)c2c1C(=O)N1CCCCC1	834
Cc1oc2cc3oc(=O)c(CC(=O)N[C@@H](Cc4c[nH]c5ccccc45)C(=O)O)c(C)c3cc2c1C	863
O=C(NCCc1c[nH]c2ccccc12)c1cn(-c2ccc(F)cc2)nn1	898
CCCc1c(C(=O)O)nnn1Cc1ccc(OC)cc1	710
CS(=O)(=O)NCC1CCN(C(=O)c2ccccc2F)CC1	608
O=C(Nc1cc(-c2cccs2)no1)c1cccc(F)c1	959
CCc1ccc(C(=O)N2CCC3(C2)C(=O)N(C)c2ccc(OC)cc23)cc1 (stereo not given)	840
COCC1(O)CCOC2(CCN(Cc3ccc(F)c(Cl)c3)CC2)C1 (stereo not given)	560
CC(C)CNC(=O)NCCn1nnc2cc(C(=O)N3CCCC3)ccc21	618
O=C(c1cccc(Cl)c1)N1CCN(c2cc(-c3cccnc3)[nH]n2)CC1	621

SMILES	RP-LC retention time [s]
CN1CCCCc2cc(C(=O)NCCN(C)C3CCCCC3)sc21	687
CN(C)C(=O)c1cc(=O)[nH]c2c(Cl)cccc12	604
O=C(CSc1ncnc2c1oc1ccccc12)Nc1ccc(F)cc1F	934
CC(C)CCNC(=O)Cn1c(=O)c2cccn2c2ccc(F)cc21	856
CCSc1nc2ccc(NS(=O)(=O)c3cccc4nsnc34)cc2s1	977
O=C(CSc1nnc(-c2ccccc2)c(-c2ccccc2)n1)Nc1nccs1	840
Cc1ccc(-c2cn3ccn(-c4ccc(C)c(C)c4)c(=O)c3n2)cc1	931
CCOC(=O)c1cccc(NC(=O)C2CCN(S(=O)(=O)c3ccc4[nH]c(=O)ccc4c3)CC2)c1	768
CCOC(=O)c1c(C)[nH]c(CCC(=O)NC2CCCCC2)c1C	823
Cc1ccc(C(=O)CC2(O)C(=O)Nc3ccc(F)cc32)cc1C (stereo not given)	776
COc1ccc(C(O)CN2CCN(c3cccc(C)c3)CC2)cc1 (stereo not given)	671
O=C(CN1C(=O)CSc2ccc(C(=O)N3CCCCC3)cc21)NCCC1=CCCCC1	870
Cc1ccc(CN2CCC(CNC(=O)c3sc4ncccc4c3-n3cccc3)C2)cc1 (stereo not given)	707
Cc1ccc(CN2CC(c3ncc(C)n3Cc3cccnc3)C2)s1	683
CCCn1c(=O)c(-c2ccc(C(=O)NC(C)C)cc2)nc2ccccc21	915
Nc1ncnc2c1ncn2C1CCCO1 (stereo not given)	580
O=C(CN1C(=O)CCC1=O)N1CCC(c2noc(-c3ccccn3)n2)C1 (stereo not given)	608
CCCCNC(=O)CN1CCN(C(=O)c2sc3ncccc3c2-n2cccc2)CC1	647
CCOCC(=O)N1CC(F)(F)C[C@H]1c1nc(C2CC2)no1	746
CCCN(C)c1nccnc1OC1CCN(C(=O)C2CC2)C1 (stereo not given)	724
CC(C)=CCC/C(C)=C\C(N)=O	816
